Assay results reported in the METLIN SMRT retention time set (Domingo-Almenara et al. 2019).

Assay: gradient 5% acetonitrile 3 min, to 50% in 2 min, to 85% in 15 min, held 3 min, 100 µL/min
Conditions: column: Zorbax Extend-C18 2.1 x 50 mm; eluents: water / acetonitrile, 0.1% formic acid
Summary of the method: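 Retention times come from adduct peaks that were picked computationally and then checked by hand. The standards, pure and pooled in mixtures of ~100 molecules, were run on a Zorbax Extend-C18 column (2.1 × 50 mm, 1.8 μm) at 100 μL/min with water and acetonitrile, each with 0.1% formic acid. Detection was by quadrupole time-of-flight mass spectrometry in positive and negative ionization mode, with a dead volume of 40 μL and a dwell volume of 900 μL.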

Row | Compound | RP-LC retention time
1 | Nc1cc(C2CCN(C(=O)Nc3ccc(Br)cc3)CC2)no1 | 732 s
2 | COc1ccc(-c2noc(CN3N=NC4C(=O)N(c5ccc(OC)c(OC)c5)C(=O)C43)n2)c(OC)c1 (stereo not drawn) | 800 s
3 | CCCCn1cc(S(=O)(=O)Nc2cc(C)ccc2F)c2cccnc21 | 754 s
4 | CC(CCc1ccco1)NC(=O)C1CCc2nc(N3CCCCC3)ncc2C1 (stereo not drawn) | 777 s
5 | CN1CCN(CCNC(=O)C2CCN(c3nc4cccnc4s3)CC2)CC1 | 555 s
6 | O=C(Nc1nc(-c2ccccc2)cs1)c1ccccc1[N+](=O)[O-] | 947 s
7 | O=C1OC(Nc2nc(-c3cccc(Br)c3)cs2)c2ccccc21 (stereo not drawn) | 862 s
8 | O=C(CC1(O)C(=O)Nc2c(Cl)cc(Cl)cc21)c1cccc([N+](=O)[O-])c1 (stereo not drawn) | 792 s
9 | CCOC(=O)Cc1csc(NC(=O)C2CCN(C(C)=O)CC2)n1 | 631 s
10 | COC(=O)c1cc(S(=O)(=O)N2CCCC2C(=O)Nc2ccc3c(c2)OCCO3)cn1C (stereo not drawn) | 794 s
11 | Cc1ccc(NC(=O)C2CCN(S(C)(=O)=O)c3cc(Cl)ccc3O2)cc1 (stereo not drawn) | 1010 s
12 | Cc1ccc(S(=O)(=O)N2CCc3nc(-c4ccc(F)cc4)ncc3C2)c(C)c1 | 1220 s
13 | O=C(Cc1c(F)cccc1Cl)N1C[C@@H]2C[C@H]1C[C@@H]2NS(=O)(=O)c1ccccc1 | 852 s
14 | O=C(c1cnccn1)N1CCC(N2C(=O)C(OCC3CC3)C23CCCCC3)CC1 (stereo not drawn) | 752 s
15 | CCN(C(=O)C1CCN(C(=O)c2ccc(F)cc2)CC1)C1CCCCC1 | 885 s
16 | CCN(CC)CCOc1ccc(/C(=C(\Cl)c2ccccc2)c2ccccc2)cc1 | 996 s
17 | CC12C(=O)N(c3nccs3)C(=O)C1(C)C1CCC2O1 (stereo not drawn) | 741 s
18 | CCN1CCN(CCCNC(=O)c2c(N3CCCC3=O)c3cc(F)ccc3n2CC)CC1 | 602 s
19 | COc1cccc(Cn2c(C(=O)N3CCC(C(=O)NC4CCCCC4)CC3)cc3ccsc32)c1 | 1000 s

Row | Compound | RP-LC retention time
20 | CCOCCCNC(=O)C(C)Oc1ccc(=O)n(-c2ccc(C)c(C)c2)n1 (stereo not drawn) | 871 s
21 | COc1ccc2nc(-c3ccc(NS(=O)(=O)c4ccccc4C(F)(F)F)cc3)cn2n1 | 792 s
22 | Cc1ccc(-c2noc(-c3cccc(S(=O)(=O)NCCN4CCCCCC4)c3)n2)cc1 | 794 s
23 | O=C(CSc1ccc(N2CCCC(C(=O)NC3CC3)C2)nn1)Nc1cc(F)ccc1F (stereo not drawn) | 617 s
24 | COc1ccc(-c2cc(C(=O)Nc3ccccc3)nn2C2CCS(=O)(=O)C2)cc1 (stereo not drawn) | 911 s
25 | Cc1nn(C)c(C)c1S(=O)(=O)NCCc1noc(-c2cccnc2)n1 | 643 s
26 | COC(=O)c1ccc(C(=O)OC)c(NS(=O)(=O)CCOc2ccccc2)c1 | 968 s
27 | CCOC(=O)c1c(S(=O)(=O)N2CCC(C(=O)Nc3ccc(OC)cc3)CC2)c(C)n(C)c1C | 804 s
28 | COC(=O)c1nnn(-c2cc(Cl)ccc2C)c1C(=O)OC | 933 s
29 | CCSc1nc2ncc(-c3ccnc(N4CCN(C)CC4)n3)c(C)n2n1 | 808 s
30 | CC(C)CC(=O)N1CCN(c2ccc(=O)n(-c3ccc(C(C)C)cc3)n2)CC1 | 902 s
31 | COc1cc(OC)c(/C=C2/C(=O)Nc3ccccc32)c(OC)c1 | 986 s
32 | CCN(C(=O)c1ccco1)c1nc(-c2ccc(Br)cc2)cs1 | 1320 s
33 | CC(=O)N1c2ccc(S(=O)(=O)N3CCCC3)cc2CC1C(=O)NCCN1CCCCC1 (stereo not drawn) | 592 s
34 | FC(F)(F)c1ccc(Nc2nc3ccc(Oc4ccnc(-c5ncc(C(F)(F)F)[nH]5)c4)cc3[nH]2)cc1 | 844 s
35 | CCN1CCN(c2ccc(NC(=O)c3cccc(C)c3)cn2)C1=O | 742 s
36 | CC(C)c1cc(C(=O)N2Cc3ccc(CN4CCN(C)CC4)cc3C2)c(O)cc1O | 654 s
37 | COc1cccc(S(=O)(=O)N2CCCC(c3nn[nH]n3)C2)c1 (stereo not drawn) | 717 s
38 | CC(C)c1nc(-c2ccc([N+](=O)[O-])cc2)cs1 | 1120 s

Row | Compound | RP-LC retention time
39 | COc1ccc2c(c1)C1(CCN(C(=O)NCc3ccc(C)cc3)C1)C(=O)N2 (stereo not drawn) | 725 s
40 | COCCCNC(=O)c1ccc2c(c1)CCCN2S(=O)(=O)c1ccccc1 | 822 s
41 | c1ccc(-n2nnc(-c3noc(-c4cccnc4)n3)c2-c2ccncc2)cc1 | 737 s
42 | Cc1ccc2c(Nc3ccc(Br)cc3)c(C(=O)N3CCOCC3)cnc2n1 | 608 s
43 | Cc1csc(-c2cc(S(=O)(=O)NCCN3CCCCC3C)cn2CC(=O)N2CCCCC2)n1 (stereo not drawn) | 673 s
44 | O=C(Nc1cccc(Cl)c1)Nc1nccn(-c2ccc3c(c2)CCC3)c1=O | 1170 s
45 | CC1(C(=O)NC2CCCCC2)CN(S(=O)(=O)c2ccccc2)CC(=O)N1c1ccccc1F (stereo not drawn) | 932 s
46 | O=C(CSc1nc2ncccc2[nH]1)NC1CCCCC1 | 621 s
47 | CN1C(=O)COc2ccc(-c3csc(NC(=O)COc4ccc(Cl)cc4)n3)cc21 | 1010 s
48 | CCc1ccc(NC(=O)N(C)CC2CCOC2)cc1 (stereo not drawn) | 739 s
49 | O=C(Nc1ccc(F)cc1)C1CCN(C(=O)c2ncn3c2COC(c2ccc(F)cc2)C3)CC1 (stereo not drawn) | 798 s
50 | O=C(Nc1ccc(C2(C(=O)NCc3ccc(F)c(Cl)c3)CCC2)cc1)C1CC1 | 903 s
51 | CC(=C/c1ccccc1)/C=C1/NC(=S)NC1=O | 880 s
52 | COCCN1C(=O)[C@H]2CN(Cc3ccc(C(C)C)cc3)C[C@H]2C1=O | 674 s
53 | O=C1c2ccc(O)cc2O[C@H](c2cc(O)c(O)c(O)c2)[C@H]1O | 617 s
54 | CCCNC(=O)C1CCCN(c2nc3ncn(CC(=O)Nc4cccc(Cl)c4)c(=O)c3s2)C1 (stereo not drawn) | 731 s
55 | COCC(=O)N1CCC([C@H]2[C@@H](OC)C(=O)N2C(C)C)CC1 | 602 s
56 | CCCCN(C)Cc1nc(-c2ccc(N3CCOCC3)nc2)no1 | 594 s

The remaining lines, values ahead:

Row | RP-LC retention time | Compound
57 | 784 s | Cc1cc2nnc(SCC(=O)c3cc(C)n(CC4CCCO4)c3C)n2c2ccccc12 (stereo not drawn)
58 | 642 s | CCCNC(=O)C1CCN(c2ccc(SCC(=O)Nc3cccc(C)c3C)nn2)CC1
59 | 868 s | CC(C)CC(=O)N1CCc2nc(-c3ccccc3)ncc2C1
60 | 874 s | Cc1ccc(-c2cc3c4nn(CC(=O)NCc5ccco5)c(=O)n4ccn3n2)cc1C
61 | 988 s | Cc1cc(C(=O)Nc2cccc(Cl)c2)nc2ccnn12
62 | 796 s | COc1cc(NC(=O)CSC2CCc3ccccc3NC2=O)cc(OC)c1 (stereo not drawn)
63 | 894 s | COc1nc(-c2ccc3c(c2)OCO3)n(-c2ccc(NC(=O)CSc3ccccc3)cc2)n1
64 | 914 s | CC1=NS(=O)(=O)N(C)C=C1C(=O)OCc1noc(-c2ccccc2F)n1
65 | 681 s | CCC1CN2C=Nc3oc(C)c(C(=O)NCc4ccccc4Cl)c3C2=N1 (stereo not drawn)
66 | 576 s | CCOC(=O)c1c(CN(C)C)n(-c2ccccc2)c2cc(-c3cccnc3)c(O)cc12
67 | 922 s | COc1ccc(NC(=O)CN2CCc3[nH]c4c(C)cc(C)cc4c(=O)c3C2)cc1OC
68 | 931 s | Cc1ccc(C(=O)N2CCCC(COc3ccc(C(=O)NC(C)C)cc3)C2)cc1C (stereo not drawn)
69 | 956 s | CCCSc1nnc(NC(=O)c2c(-c3ccccc3Cl)noc2C)s1
70 | 1090 s | COc1ccc2c(c1)CCc1sc(NC(=O)c3ccccc3F)nc1-2
71 | 690 s | Cn1cnc(S(=O)(=O)N2CCCC(c3nnnn3-c3ccccc3)C2)c1 (stereo not drawn)
72 | 655 s | CCCCN(C)C(=O)Cn1c(CN(C)C(=O)c2ccco2)nc2ccccc21

Row | RP-LC retention time | Compound
73 | 1020 s | CCN(CC)c1nc2cc(C(=O)NCc3ccc(C)o3)ccc2c(=O)n1-c1ccccc1
74 | 893 s | Cc1ccc(CC(=O)NC2CCN(c3cc(C)cc(C)c3)C2=O)cc1 (stereo not drawn)
75 | 580 s | CCc1cc(C(=O)N2CCN(CC)CC2)nc2cc(-c3ccccn3)nn12
76 | 734 s | Cc1ccc(NC(=O)Cn2cnc3nc4c(cc3c2=O)CCCC4)c(C)c1
77 | 793 s | Cc1ccc(C)c(NC(=O)C2CCCN(c3ncnc4c3nc3n4CCCCC3)C2)c1 (stereo not drawn)
78 | 652 s | CN(CCNC(=O)CCCn1c2ccccc2c2cnn(C)c(=O)c21)Cc1ccccc1
79 | 918 s | Fc1ccc(F)c(CN2CCCCC2c2nc(-c3cnccn3)no2)c1 (stereo not drawn)
80 | 637 s | Cn1cnnc1C1CCCCN1C(=O)c1cc(-c2cccs2)[nH]n1 (stereo not drawn)
81 | 1000 s | COc1ccc(Br)c(C(=O)N2CC(c3nc(-c4cccc(Cl)c4)no3)C2)c1
82 | 850 s | Cc1c(Cl)cccc1N1C(=O)CN(S(C)(=O)=O)CC1(C)C(=O)NCc1ccccc1 (stereo not drawn)
83 | 627 s | Cc1cc(N(C)C)n2nc(CN3CCN(c4ccccc4Cl)CC3)nc2n1
84 | 788 s | COc1cc2c(cc1OC)C(C(=O)NCc1ccc3c(c1)OCO3)C1c3ccccc3CCN1C2=O (stereo not drawn)
85 | 633 s | Cc1cc(N2CCN(C(=O)Nc3cccc(C)c3C)CC2)nc(N2CCOCC2)n1
86 | 930 s | Cc1cc(C)cc(NC(=O)CN2C(=O)CCc3cc(S(=O)(=O)N4CCCCC4C)ccc32)c1 (stereo not drawn)
87 | 838 s | CCc1ccc(OCc2ccccc2C(=O)Nc2ccc3nc(C)cc(N)c3c2)cc1
88 | 663 s | Cc1cc2ccccc2n2c(SCC(=O)NCc3ccco3)nnc12
